Measurements reported in paper PMC9247258, “Synthesis and Biological Activity Evaluation of 2-Cyanopyrrole Derivatives as Potential Tyrosinase Inhibitors” (Frontiers in Chemistry, 2022).

Columns and labels:
mushroom tyrosinase [1] = target: T1, mushroom tyrosinase (Agaricus bisporus, UniProt C7FF04); experiment: Mushroom tyrosinase inhibitory assay (L-DOPA as substrate); assay type: biochemical; set-up: purchased Sigma (St. Louis, MO, United States); details: for IC50: mushroom tyrosinase, L-DOPA substrate, absorbance 475 nm
Procedure: The mushroom tyrosinase activity assays of synthetic compounds were carried out according to the previously reported modification ([Qin et al., 2015]). L-DOPA was used as the substrate. Briefly, 800 μl of phosphate buffer (50 mM, pH 6.8), 50 μl of mushroom tyrosinase (666.67 U/ml, dissolved in PBS), and 50 μl of inhibitor (dissolved in DMSO) were placed in the plastic centrifuge tube. Then, 100 μl of L-DOPA (5 mM, dissolved in PBS) was added. Subsequently, its change in absorbance at 475 nm was measured in a time-dependent manner using a Beckman UV-650 spectrophotometer. The percentage inhibition was calculated by using [(OD0 - OD1)/OD0] × 100%, where OD0 was the absorbance without inhibitor, and OD1 was the absorbance with the inhibitor. The IC50 value of the potential compound was calculated from dose-response curves of percentage inhibition. Kojic acid was used as a standard control for comparison. All experiments were performed in duplicate.
Target sequence in this assay (C7FF04 1-392 limits assumed): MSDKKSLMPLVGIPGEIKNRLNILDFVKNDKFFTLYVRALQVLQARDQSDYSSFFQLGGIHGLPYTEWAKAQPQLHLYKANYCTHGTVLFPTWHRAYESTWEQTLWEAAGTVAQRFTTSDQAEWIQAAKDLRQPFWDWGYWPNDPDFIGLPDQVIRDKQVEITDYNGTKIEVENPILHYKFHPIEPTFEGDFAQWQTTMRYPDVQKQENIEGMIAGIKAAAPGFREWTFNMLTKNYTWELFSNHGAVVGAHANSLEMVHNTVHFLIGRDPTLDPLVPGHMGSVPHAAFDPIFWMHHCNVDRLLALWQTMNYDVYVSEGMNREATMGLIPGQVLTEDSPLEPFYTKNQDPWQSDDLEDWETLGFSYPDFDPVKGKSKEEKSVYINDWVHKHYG

[2] = test system: tyrosinase in B16 melanoma cells; experiment: Cellular tyrosinase activity; assay type: cell-based; details: Mus musculus, 48 h incubation
Procedure: B16 mouse melanoma cells were cultured in Dulbecco’s modified Eagle’s medium (DMEM) containing 10% fetal bovine serum and 1% penicillin/streptomycin at 37°C in a 5% CO2 incubator. The inhibitory activity of A12 on tyrosinase in B16 cells was evaluated. B16 cells (5 × 10^4 cells/well) were plated in 96-well plates and incubated for 24 h. A measure of 100 µl of complete medium including A12 or kojic acid was added for further incubation of 48 h. Then, cells were added to 50 µl Triton X-100 (1%) and allowed for freezing for 1 h at −80°C. After thawing at room temperature, 10 μl L-DOPA solutions (0.1%, w/v) were added and co-incubated for 1 h at 37°C. The absorbance at 405 nm was measured.

B16 melanoma cells = experiment: MTT assay, cell cytotoxicity; assay type: cell-based, mouse; details: 24 h treatment, under a concentration of 100 μM
Procedure: B16 mouse melanoma cells were cultured in Dulbecco’s modified Eagle’s medium (DMEM) containing 10% fetal bovine serum and 1% penicillin/streptomycin at 37°C in a 5% CO2 incubator. B16 cells (100 µl) were plated in a 96-well plate (5 × 10^3 cells/well) for 24 h and then treated with a 100 µl complete medium containing A12 or kojic acid for 24 h. MTT solution (0.5 mg/ml, final concentration) was added to each well, and plates were incubated at 37°C for another 3 h. The absorbance was measured at 490 nm using a multi-detection microplate reader.

mushroom tyrosinase [3] = target: T1, mushroom tyrosinase; experiment: Inhibition mechanism and kinetic analysis (v vs [E] plots, Lineweaver-Burk plot); assay type: biochemical
Procedure: Experiments were performed to analyze the inhibitory mechanism by the following method. For the text, the mushroom tyrosinase at a final concentration of 16.67–100.00 U/ml and L-DOPA at a final concentration of 0.5 mM were chosen. Then, the mushroom tyrosinase activity was measured in the presence of the inhibitor.
The inhibition type of the inhibitor on mushroom tyrosinase was evaluated by the Lineweaver–Burk plot, and the inhibition constants were obtained from the second plots of the apparent 1/Vmax and Km/Vmax against the inhibitor concentration. In this assay, mushroom tyrosinase at a final concentration of 33.33 U/ml and L-DOPA at a final concentration of 0.25–2 mM were used. The equation for the Lineweaver–Burk plot can be written as follows: 1/v−Km/Vm(1+[I]/KI)+1/Vm(1+[I]/KIS) where v is the reaction velocity, Km is the Michaelis constant, Vm is the maximal velocity, [I] is the concentration of the inhibitor, [S] is the concentration of the substrate, KI is the constant for the inhibitor binding with the free enzyme, and KIS is the constant for the inhibitor binding with the enzyme-substrate complex. KI and KIS were obtained from the slope or the vertical intercept vs. the inhibitor concentration, respectively.
Target sequence in this assay (C7FF04 2-392): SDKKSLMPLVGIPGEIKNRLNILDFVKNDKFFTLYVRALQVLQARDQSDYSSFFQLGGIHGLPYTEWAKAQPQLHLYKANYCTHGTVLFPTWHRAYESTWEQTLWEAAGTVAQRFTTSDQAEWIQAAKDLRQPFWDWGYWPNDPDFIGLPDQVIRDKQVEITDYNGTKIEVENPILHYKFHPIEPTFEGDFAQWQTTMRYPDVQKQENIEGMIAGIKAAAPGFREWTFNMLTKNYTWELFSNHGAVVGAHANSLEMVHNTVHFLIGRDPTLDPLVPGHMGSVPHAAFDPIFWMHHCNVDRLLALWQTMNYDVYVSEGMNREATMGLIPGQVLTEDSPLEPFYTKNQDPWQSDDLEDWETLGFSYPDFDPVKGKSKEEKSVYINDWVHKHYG

| Structure (SMILES) | IC50 (mushroom tyrosinase [1]) [µM] | further results |
| --- | --- | --- |
| Cn1ccc(-c2ccccc2)c1C#N [Compound A1] | 7.42 |  |
| Cn1ccc(-c2ccccc2F)c1C#N [Compound A2] | 8.72 |  |
| Cn1ccc(-c2cccc(F)c2)c1C#N [Compound A3] | 21.4 |  |
| Cn1ccc(-c2ccccc2Br)c1C#N [Compound A4] | 8.47 |  |
| Cn1ccc(-c2cccc(Br)c2)c1C#N [Compound A5] | 16.5 |  |
| Cn1ccc(-c2ccc(Br)cc2)c1C#N [Compound A6] | 8.17 |  |
| COc1ccccc1-c1ccn(C)c1C#N [Compound A7] | 23.6 |  |
| COc1ccc(-c2ccn(C)c2C#N)cc1 [Compound A8] | 89.2 |  |
| Cn1ccc(-c2ccc(C(F)(F)F)cc2)c1C#N [Compound A9] | 12.4 |  |
| Cn1ccc(-c2cccc(Cl)c2Cl)c1C#N [Compound A10] | 4.83 |  |
| COc1ccc(Br)cc1-c1ccn(C)c1C#N [Compound A11] | 2.11 |  |
| C=Cc1ccccc1-c1ccn(C)c1C#N [Compound A12] | 0.97 | inhibition at 100 µM [2]: 33.5%; cell cytotoxicity on B16 melanoma cells (B16 melanoma cells): no cytotoxicity; times stronger than the reference inhibitor kojic acid (mushroom tyrosinase [1]; ratio of tyrosinase IC50 values, kojic acid vs compound): ~30 times; inhibition type (mushroom tyrosinase [3]; Lineweaver-Burk double reciprocal plots, L-DOPA 0.25-2 mM, tyrosinase 33.33 U/ml): mixed-type; reversibility of tyrosinase inhibition (mushroom tyrosinase [3]; plots of initial velocity vs tyrosinase concentration, L-DOPA 0.5 mM): reversible; KIS, equilibrium constant for inhibitor binding with enzyme-substrate complex (mushroom tyrosinase [3]; second plot of apparent 1/Vmax vs inhibitor concentration): 1.00 µM |
| CCn1c(C)cc(-c2ccccc2)c1C#N [Compound A13] | 4.46 |  |
| N#Cc1c(-c2ccc(Cl)cc2)ccn1Cc1ccccc1 [Compound A14] | 80.5 |  |
| Cn1c(-c2ccccc2)cc(-c2ccc(Cl)cc2)c1C#N [Compound A15] | 87.3 |  |
| N#Cc1c(-c2ccc(Cl)cc2)cc2n1CCCC2 [Compound A16] | 5.06 |  |
| N#Cc1c(-c2ccc(Cl)cc2)cc2n1Cc1ccccc1C2 [Compound A17] | 5.57 |  |
| O=c1cc(CO)occ1O [Kojic acid, reference compound] |  | inhibition at 100 µM [2]: 39.8%; cell cytotoxicity on B16 melanoma cells (B16 melanoma cells): no cytotoxicity |

Now from value to compound, other results behind:

| IC50 (mushroom tyrosinase [1]) [µM] | Structure (SMILES) | further results |
| --- | --- | --- |
| > 200 | Cn1ccc(-c2cccc(Br)c2)c1C(N)=O [Compound B1, 3-(3-Bromophenyl)-1-methyl-1H-pyrrole-2-carboxamide] |  |
| > 200 | Cn1ccc(-c2ccc(Br)cc2)c1C(N)=O [Compound B2, 3-(4-Bromophenyl)-1-methyl-1H-pyrrole-2-carboxamide] | melting point: 172 to 174 °C |
| > 200 | Cn1ccc(-c2ccc(Br)cc2)c1CNC(=O)OC(C)(C)C [Compound B3, tert-Butyl ((3-(4-bromophenyl)-1-methyl-1H-pyrrol-2-yl)methyl)carbamate] | melting point: 109 to 113 °C |
| > 200 | Cn1ccc(-c2cccc(F)c2)c1CNC(=O)OC(C)(C)C [Compound B4, tert-Butyl ((3-(3-fluorophenyl)-1-methyl-1H-pyrrol-2-yl)methyl)carbamate] | melting point: 103 to 104 °C |
| > 200 | Cn1ccc(-c2cccc(Br)c2)c1CNC(=O)OC(C)(C)C [Compound B5, tert-Butyl ((3-(3-bromophenyl)-1-methyl-1H-pyrrol-2-yl)methyl)carbamate] | melting point: 124 to 127 °C |
| > 200 | Cn1ccc(-c2ccccc2)c1CNC(=O)OC(C)(C)C [Compound B6, tert-Butyl ((1-methyl-3-phenyl-1H-pyrrol-2-yl)methyl)carbamate] | melting point: 87 to 90 °C |
| > 200 | Cn1ccc(-c2ccc(C(F)(F)F)cc2)c1CNC(=O)OC(C)(C)C [Compound B7, tert-Butyl ((1-methyl-3-(4-(trifluoromethyl)phenyl)-1H-pyrrol-2-yl)methyl)carbamate] | melting point: 120 to 122 °C |
| > 200 | Cn1ccc(-c2ccccc2F)c1CNC(=O)OC(C)(C)C [Compound B8, tert-Butyl ((3-(2-fluorophenyl)-1-methyl-1H-pyrrol-2-yl)methyl)carbamate] | melting point: 81 to 84 °C |
